# From patent US12059429B2, “Hornerin: a novel non-VEGF mediated angiogenic protein expressed in both human and mouse angiogenic endothelial cells and human pancreatic cancer cells” (University of Virginia Patent Foundation, priority 2018, dated 2024)
# How the values were obtained:
# [1] = tested on: hornerin; assay: Immunoblot of hornerin in HUVECs treated with growth factors; format: cell-based, human; conditions: 24 hours treatment; growth factors at published B-max concentrations, EGF at increasing concentrations
# Procedure: HUVECs were cultured in 10 cm dishes for 24 hours prior to a change to media containing VEGF (at B-max concentration), TCM, or VC. After 24 hours treatment, the cells were washed with DPBST two times and lysed with radioimmunoprecipitation assay (RIPA) buffer (Thermo Scientific). Lysate protein concentrations were measured by the bicinchoninic acid assay (Pierce, Waltham, MA, USA) and equivalent amounts of protein were loaded into precast 4-15% tris-glycine eXtended (TGX) polyacrylamide gels (Bio-Rad, Hercules, CA, USA). The proteins were resolved by electrophoresis and transferred to nitrocellulose membranes using the iBlot system (Invitrogen, Carlsbad, CA, USA). The membranes were then washed in Tris-buffered saline+1% Tween-20 (TBST), blocked for 30 minutes in TBST+2% milk solution, and incubated overnight at 4° C. with primary antibodies anti-hornerin (Abcam, Cambridge, UK, ab78909; (1:1000)) and anti-HSP90 (Cell Signaling Technology, Danvers, MA, USA, 4877; (1:1000)). The following day the membranes were washed and subsequently incubated with the secondary antibodies anti-goat HRP (R&D Systems, Minneapolis, MN, USA, HAF109; 1:5000) and anti-rabbit HRP (GE Healthcare, NA934V; 1:5000) for 45 minutes at RT. […]
# Major constituents of TCM were determined using a Human Angiogenesis Antibody Array (Affymetrix, Santa Clara, CA, USA) per manufacturer's instructions. […]
# [2] = tested on: hornerin; assay: Immunoblot of hornerin in L3.6pl cells treated with EGF; format: cell-based, human; conditions: EGF 1, 10 or 100 ng/mL, 48 hours
# [3] = tested on: hornerin; assay: Immunoblot of hornerin in human keratinocytes treated with EGF; format: cell-based; conditions: 48 hours
# [4] = tested on: TCM-treated HUVECs; assay: Phage-based ELISA on treated HUVECs with two-way ANOVA; format: binding, human
# Procedure: HUVEC were plated in MaxiSorp 96-well plates (NUNC, Rochester, NY, USA) and cultured for 24 hours, at which time the cells were treated with media containing VEGF (VEGFCM) at B-max concentration (Igarashi et al., 2003) or TCM for an additional 24 h. ELISA was initiated by adding 1010 isolated phage to each well for a 1 hour incubation. After three washes with DPBS+0.1% Tween-20 (DPBST), the cells were incubated with horse radish peroxidase (HRP)-tagged anti-M13 antibody (GE Healthcare, Little Chalfont, UK, 27-9421-01; (1:3000)) for 30 min. The plates were washed three additional times (DBPST) then developed with 200 μL 3,3′,5,5′-Tetramethylbenzidine (Sigma) for 10 minutes. The A650 was measured on a microplate reader (Molecular Devices, Sunnyvale, CA, USA).
# Absorbance values were corrected by comparison to unmodified control KE phage. […]
# As VEGF is highly abundant in the pancreatic tumor milieu, clones were further segregated based on their ability to bind to VEGF-treated HUVECs vs. tumor conditioned media (TCM)-treated HUVECs. […] Enzyme-linked immunoabsorbent assay (ELISA) results were analyzed by two-way analysis of variance (ANOVA) to find clones that consistently bound to HUVECs treated with TCM, but not vehicle control (VC) or VEGF-supplemented control media (VEGFCM; FIGS. 2A and 2B). […]
# [5] = target: T1, hornerin (Homo sapiens, UniProt Q86YZ3); assay: Phage display-based functional proteomics (pulldown, MS/MS, anti-hornerin immunoblot); format: binding; conditions: tandem mass spectroscopy of pulldown lysates, confirmed by immunoblot
# T1 construct: A unique band in the PTEM 9 lane that was not present in the control sample corresponded to the predicted molecular weight of hornerin; endogenous in cells
# Procedure: The gel piece was transferred to a siliconized tube and washed and destained in 200 μL 50% methanol overnight. The gel pieces were dehydrated in acetonitrile, rehydrated in 30 μL of 10 mM dithiolthreitol in 0.1M ammonium bicarbonate, and reduced at room temperature for 0.5 hours. The DTT solution was removed and the sample alkylated in 30 μL 50 mM iodoacetamide in 0.1M ammonium bicarbonate at room temperature for 0.5 hours. The reagent was removed and the gel pieces dehydrated in 100 μL acetonitrile. The acetonitrile was removed and the gel pieces rehydrated in 100 μL 0.1M ammonium bicarbonate. The pieces were dehydrated in 100 μL acetonitrile, the acetonitrile removed and the pieces completely dried by vacuum centrifugation. […]
# The LC-MS system consisted of a Thermo Electron Velos Orbitrap ETD mass spectrometer system with a Protana nanospray ion source interfaced to a self-packed 8 cm×75 μm id Phenomenex Jupiter 10 μm C18 reversed-phase capillary column. […] The digest was analyzed using the double play capability of the instrument acquiring full scan mass spectra (Orbitrap, 60 K resolution) to determine peptide molecular weights followed by product ion spectra (ion trap) to determine amino-acid sequence in sequential scans. […]
# The data were analyzed by database searching using the Sequest search algorithm within Proteome Discoverer (v1.2) against IPI Human (v3.78, 86,702 entries). […]
# T1 sequence (Q86YZ3 whole entry): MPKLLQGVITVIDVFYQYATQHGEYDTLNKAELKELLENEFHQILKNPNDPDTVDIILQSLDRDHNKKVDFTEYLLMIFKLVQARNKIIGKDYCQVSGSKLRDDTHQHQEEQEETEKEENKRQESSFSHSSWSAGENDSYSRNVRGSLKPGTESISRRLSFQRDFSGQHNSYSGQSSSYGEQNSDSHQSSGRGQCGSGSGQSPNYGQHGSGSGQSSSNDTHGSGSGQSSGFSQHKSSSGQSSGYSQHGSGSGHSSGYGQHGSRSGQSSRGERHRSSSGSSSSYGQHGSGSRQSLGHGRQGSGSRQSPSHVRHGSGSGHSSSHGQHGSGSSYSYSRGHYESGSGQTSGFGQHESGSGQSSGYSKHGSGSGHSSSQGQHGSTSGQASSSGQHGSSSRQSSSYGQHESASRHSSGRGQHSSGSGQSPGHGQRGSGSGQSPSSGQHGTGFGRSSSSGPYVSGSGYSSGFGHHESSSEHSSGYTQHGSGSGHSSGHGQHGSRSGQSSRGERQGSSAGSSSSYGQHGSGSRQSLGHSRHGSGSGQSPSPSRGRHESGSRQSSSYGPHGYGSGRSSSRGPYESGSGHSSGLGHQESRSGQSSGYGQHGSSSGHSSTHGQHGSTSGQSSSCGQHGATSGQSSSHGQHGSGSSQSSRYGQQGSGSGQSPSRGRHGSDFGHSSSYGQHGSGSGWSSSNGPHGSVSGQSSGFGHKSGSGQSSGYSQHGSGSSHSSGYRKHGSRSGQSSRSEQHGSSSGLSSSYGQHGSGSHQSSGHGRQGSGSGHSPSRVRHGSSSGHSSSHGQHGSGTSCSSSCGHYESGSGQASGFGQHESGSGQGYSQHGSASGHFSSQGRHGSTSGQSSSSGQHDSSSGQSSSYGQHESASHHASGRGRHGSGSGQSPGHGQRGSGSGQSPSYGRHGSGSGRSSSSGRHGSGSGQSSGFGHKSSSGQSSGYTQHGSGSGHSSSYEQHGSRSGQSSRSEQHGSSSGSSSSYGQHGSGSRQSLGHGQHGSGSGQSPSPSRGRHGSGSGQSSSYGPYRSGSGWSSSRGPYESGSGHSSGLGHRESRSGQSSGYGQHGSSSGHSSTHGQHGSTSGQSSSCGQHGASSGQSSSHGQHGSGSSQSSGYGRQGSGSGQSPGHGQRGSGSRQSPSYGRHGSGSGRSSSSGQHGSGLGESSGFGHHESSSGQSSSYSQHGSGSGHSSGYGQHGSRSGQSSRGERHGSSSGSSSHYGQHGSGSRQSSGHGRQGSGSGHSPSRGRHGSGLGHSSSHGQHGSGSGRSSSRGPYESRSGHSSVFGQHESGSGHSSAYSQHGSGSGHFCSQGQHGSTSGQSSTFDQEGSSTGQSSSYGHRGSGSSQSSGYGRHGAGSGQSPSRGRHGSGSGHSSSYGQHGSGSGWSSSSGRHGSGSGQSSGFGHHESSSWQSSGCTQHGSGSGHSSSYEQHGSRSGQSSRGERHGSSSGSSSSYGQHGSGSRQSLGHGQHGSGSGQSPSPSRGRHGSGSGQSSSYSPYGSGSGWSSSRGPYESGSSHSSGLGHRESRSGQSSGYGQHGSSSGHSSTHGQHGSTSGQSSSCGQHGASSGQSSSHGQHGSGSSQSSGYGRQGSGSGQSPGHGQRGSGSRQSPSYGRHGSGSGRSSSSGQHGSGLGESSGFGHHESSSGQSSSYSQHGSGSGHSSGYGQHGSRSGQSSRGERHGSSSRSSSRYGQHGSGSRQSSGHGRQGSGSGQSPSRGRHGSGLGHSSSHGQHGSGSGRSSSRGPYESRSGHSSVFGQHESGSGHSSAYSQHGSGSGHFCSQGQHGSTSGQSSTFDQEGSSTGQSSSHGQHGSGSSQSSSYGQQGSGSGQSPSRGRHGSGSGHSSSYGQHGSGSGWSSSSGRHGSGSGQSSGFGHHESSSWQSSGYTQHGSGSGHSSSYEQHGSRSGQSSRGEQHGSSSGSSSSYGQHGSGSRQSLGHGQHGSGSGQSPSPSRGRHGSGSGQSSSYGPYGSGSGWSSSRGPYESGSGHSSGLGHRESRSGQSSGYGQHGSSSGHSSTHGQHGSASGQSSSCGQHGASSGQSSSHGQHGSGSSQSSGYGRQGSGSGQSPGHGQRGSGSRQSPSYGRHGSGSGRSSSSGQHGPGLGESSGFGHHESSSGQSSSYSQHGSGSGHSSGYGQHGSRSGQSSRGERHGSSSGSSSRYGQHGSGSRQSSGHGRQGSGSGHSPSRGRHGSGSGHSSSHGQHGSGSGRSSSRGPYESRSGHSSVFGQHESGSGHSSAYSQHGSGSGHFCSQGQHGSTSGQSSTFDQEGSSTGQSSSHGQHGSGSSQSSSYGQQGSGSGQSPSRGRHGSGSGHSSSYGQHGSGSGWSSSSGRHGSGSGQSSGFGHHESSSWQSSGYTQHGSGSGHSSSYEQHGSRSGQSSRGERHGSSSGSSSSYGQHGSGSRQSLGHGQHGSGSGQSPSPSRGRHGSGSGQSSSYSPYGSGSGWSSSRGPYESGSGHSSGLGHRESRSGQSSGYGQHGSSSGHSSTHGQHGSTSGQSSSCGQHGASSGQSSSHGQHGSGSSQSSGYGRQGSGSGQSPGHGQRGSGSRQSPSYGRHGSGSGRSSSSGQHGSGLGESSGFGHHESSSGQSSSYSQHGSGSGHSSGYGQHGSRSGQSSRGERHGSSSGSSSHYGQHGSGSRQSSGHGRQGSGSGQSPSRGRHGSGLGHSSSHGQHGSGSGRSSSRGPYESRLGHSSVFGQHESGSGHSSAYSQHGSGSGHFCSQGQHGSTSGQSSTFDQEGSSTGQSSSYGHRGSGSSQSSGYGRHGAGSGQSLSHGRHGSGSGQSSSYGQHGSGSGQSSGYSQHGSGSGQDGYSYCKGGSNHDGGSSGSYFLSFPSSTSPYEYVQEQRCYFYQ
Substance,hornerin expression in HUVECs [1],hornerin expression in L3.6pl cells [2],hornerin expression in keratinocytes [3],specificity (fold over vehicle control) among clones binding selectively to TCM-treated HUVECs [4],binding partner identified [5]
EGF: recombinant human EGF (PeproTech),increased,concentration-dependent increase in expression,more modest response,,
SLLNRMP (listed as Homo sapiens) [PTEM 9],,,,highest average specificity,hornerin as the candidate protein
